Assay results: US10670605B2, “Cysteine reactive probes and uses thereof” (The Scripps Research Institute, priority 2015, dated 2020)
Several values for one entry are separate records, joined by “and”; a condition that tells them apart may be missing. Identical values can stand only once.

What was measured:
Test in all cases: Competitive isoTOP-ABPP, cell lysates;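 on isoTOP-ABPP reactivity profile ratio, O00170 C122: Heavy/light ratio DMSO over fragment-treated so higher means more cysteine engagement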;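 on isoTOP-ABPP reactivity profile ratio, P09211 C48: Heavy/light ratio DMSO over fragment-treated so higher means more cysteine engagement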
Type in all cases: binding
[1] = molecular target: GSTP1 C48 (P09211) (Homo sapiens, UniProt P09211); conditions: for isoTOP-ABPP reactivity ratio, P09211_C48 / isoTOP-ABPP reactivity profile ratio, P09211_C48: 500 μm;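 on isoTOP-ABPP reactivity profile ratio, P09211 C48: Heavy/light ratio DMSO over fragment-treated so higher means more cysteine engagement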
[2] = molecular target: DCUN1D1 C115 (Q96GG9) (Homo sapiens, UniProt Q96GG9); conditions: for isoTOP-ABPP reactivity ratio, Q96GG9_C115 / isoTOP-ABPP reactivity profile ratio, Q96GG9_C115: 500 μm
[3] = molecular target: T1, AIP C122 (O00170) (Homo sapiens, UniProt O00170); conditions: for isoTOP-ABPP reactivity ratio, O00170_C122 / isoTOP-ABPP reactivity profile ratio, O00170_C122: 500 μm;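 on isoTOP-ABPP reactivity profile ratio, O00170 C122: Heavy/light ratio DMSO over fragment-treated so higher means more cysteine engagement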
T1 sequence (O00170 1-330): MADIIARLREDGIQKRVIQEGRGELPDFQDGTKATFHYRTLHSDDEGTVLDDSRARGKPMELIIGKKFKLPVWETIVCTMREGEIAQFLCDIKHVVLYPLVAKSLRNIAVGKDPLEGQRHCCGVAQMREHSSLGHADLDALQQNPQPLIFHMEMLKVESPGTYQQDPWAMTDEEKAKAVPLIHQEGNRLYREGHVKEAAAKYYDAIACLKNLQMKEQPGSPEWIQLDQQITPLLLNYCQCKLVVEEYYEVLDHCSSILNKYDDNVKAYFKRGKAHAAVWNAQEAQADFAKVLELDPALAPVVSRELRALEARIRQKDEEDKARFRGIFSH

[4] = molecular target: T2, PDIA6 C55 (Q15084) (Homo sapiens, UniProt Q15084); conditions: for isoTOP-ABPP reactivity ratio, Q15084_C55 / isoTOP-ABPP reactivity profile ratio, Q15084_C55: 500 μm
T2 sequence (Q15084 20-440): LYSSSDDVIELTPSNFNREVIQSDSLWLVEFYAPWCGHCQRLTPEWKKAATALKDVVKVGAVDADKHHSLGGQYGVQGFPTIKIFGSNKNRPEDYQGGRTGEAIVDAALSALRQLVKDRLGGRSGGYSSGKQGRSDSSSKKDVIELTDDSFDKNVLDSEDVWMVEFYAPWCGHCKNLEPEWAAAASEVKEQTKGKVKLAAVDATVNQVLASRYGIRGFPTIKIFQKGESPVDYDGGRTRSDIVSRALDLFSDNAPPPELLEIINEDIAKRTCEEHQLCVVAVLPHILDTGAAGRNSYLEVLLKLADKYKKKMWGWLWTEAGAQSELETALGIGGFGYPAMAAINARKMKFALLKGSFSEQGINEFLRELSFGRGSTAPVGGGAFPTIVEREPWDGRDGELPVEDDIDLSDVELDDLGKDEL

[5] = molecular target: T3, MGMT C150 (P16455) (Homo sapiens, UniProt P16455); conditions: for isoTOP-ABPP reactivity ratio, P16455_C150 / isoTOP-ABPP reactivity profile ratio, P16455_C150: 500 μm, in-vitro_ramos
T3 sequence (P16455 1-207): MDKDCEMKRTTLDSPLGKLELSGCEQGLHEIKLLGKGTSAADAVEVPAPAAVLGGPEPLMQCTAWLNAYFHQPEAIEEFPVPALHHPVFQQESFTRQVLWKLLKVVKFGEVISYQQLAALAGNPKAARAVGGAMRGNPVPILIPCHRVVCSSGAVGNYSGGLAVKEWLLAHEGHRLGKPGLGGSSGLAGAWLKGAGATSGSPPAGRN

[6] = molecular target: IDH1 C269 (O75874) (Homo sapiens, UniProt O75874)
[7] = molecular target: GNB2L1 C182 (P63244) (Homo sapiens, UniProt P63244); conditions: for isoTOP-ABPP reactivity ratio, P63244_C182 / isoTOP-ABPP reactivity profile ratio, P63244_C182: 500 μm
[8] = molecular target: XPO1 C528 (O14980) (Homo sapiens, UniProt O14980); conditions: for isoTOP-ABPP reactivity ratio, O14980_C528 / isoTOP-ABPP reactivity profile ratio, O14980_C528: 500 μm
XPO1 C528 (O14980), sequence (O14980 whole entry): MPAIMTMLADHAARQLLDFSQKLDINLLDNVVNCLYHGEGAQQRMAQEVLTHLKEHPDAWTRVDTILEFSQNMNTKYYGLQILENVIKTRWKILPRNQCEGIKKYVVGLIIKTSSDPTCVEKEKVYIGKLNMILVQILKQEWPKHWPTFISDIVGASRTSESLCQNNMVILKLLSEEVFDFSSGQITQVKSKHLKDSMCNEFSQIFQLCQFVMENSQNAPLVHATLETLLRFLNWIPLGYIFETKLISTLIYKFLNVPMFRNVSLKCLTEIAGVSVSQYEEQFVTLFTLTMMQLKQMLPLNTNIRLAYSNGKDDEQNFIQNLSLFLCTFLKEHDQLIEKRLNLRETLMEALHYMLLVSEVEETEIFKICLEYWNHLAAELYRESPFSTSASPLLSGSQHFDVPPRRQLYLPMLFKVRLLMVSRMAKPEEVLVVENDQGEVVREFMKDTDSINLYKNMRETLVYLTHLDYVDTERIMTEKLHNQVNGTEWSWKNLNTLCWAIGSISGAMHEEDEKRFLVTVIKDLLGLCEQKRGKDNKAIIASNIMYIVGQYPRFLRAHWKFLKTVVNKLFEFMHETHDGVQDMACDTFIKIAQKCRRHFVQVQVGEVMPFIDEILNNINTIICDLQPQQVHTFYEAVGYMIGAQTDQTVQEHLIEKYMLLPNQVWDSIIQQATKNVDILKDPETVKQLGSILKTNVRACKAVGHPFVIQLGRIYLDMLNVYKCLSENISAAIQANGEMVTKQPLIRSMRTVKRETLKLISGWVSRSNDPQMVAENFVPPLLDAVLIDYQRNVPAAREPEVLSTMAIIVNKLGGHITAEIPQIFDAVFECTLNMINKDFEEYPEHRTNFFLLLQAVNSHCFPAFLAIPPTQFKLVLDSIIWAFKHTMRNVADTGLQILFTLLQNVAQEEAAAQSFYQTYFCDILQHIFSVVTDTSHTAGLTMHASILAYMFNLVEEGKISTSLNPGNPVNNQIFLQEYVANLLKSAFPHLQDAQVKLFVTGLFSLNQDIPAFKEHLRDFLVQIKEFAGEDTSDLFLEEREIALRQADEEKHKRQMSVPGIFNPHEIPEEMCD

DCUN1D1 C115 (Q96GG9), sequence (Q96GG9 whole entry, the tested form may be a part): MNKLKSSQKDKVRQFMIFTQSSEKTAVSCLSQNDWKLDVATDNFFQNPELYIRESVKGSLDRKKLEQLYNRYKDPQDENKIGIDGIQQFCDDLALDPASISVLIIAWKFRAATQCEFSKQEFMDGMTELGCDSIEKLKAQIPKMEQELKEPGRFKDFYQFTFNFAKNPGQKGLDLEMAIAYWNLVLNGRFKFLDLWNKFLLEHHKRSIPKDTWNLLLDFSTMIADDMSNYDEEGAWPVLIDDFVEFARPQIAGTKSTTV
IDH1 C269 (O75874), sequence (O75874 whole entry): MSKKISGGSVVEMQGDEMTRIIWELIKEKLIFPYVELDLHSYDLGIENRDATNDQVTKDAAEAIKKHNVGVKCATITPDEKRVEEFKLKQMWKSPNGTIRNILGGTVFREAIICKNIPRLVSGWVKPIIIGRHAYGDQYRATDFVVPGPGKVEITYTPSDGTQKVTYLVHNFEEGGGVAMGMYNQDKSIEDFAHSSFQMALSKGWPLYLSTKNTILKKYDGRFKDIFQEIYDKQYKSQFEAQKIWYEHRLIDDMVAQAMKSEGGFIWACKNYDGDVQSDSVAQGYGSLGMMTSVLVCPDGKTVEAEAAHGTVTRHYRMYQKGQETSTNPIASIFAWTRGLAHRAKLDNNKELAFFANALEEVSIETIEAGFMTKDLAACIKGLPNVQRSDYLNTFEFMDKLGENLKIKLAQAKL
GSTP1 C48 (P09211), sequence (P09211 whole entry, the tested form may be a part): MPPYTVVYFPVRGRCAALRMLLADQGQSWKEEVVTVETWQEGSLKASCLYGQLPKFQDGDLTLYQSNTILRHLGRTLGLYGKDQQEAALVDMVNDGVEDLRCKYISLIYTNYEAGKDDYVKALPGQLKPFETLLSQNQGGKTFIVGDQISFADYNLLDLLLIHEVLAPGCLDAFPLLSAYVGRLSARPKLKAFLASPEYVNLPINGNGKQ

## O=C(CCl)N1CCOCC1 [compound 22]
[1]; 500 μm in-vitro ramos
  isoTOP-ABPP ratio (reactivity profile), P09211_C48: 0.7
[1]; 500 μm in-vitro ramos_231
  isoTOP-ABPP ratio (reactivity profile), P09211_C48: 0.9
[2]; 500 μm in-vitro ramos
  isoTOP-ABPP ratio (reactivity profile), Q96GG9_C115: 0.8
[2]; 500 μm in-vitro ramos_231
  isoTOP-ABPP ratio (reactivity profile), Q96GG9_C115: 1.0
[3]; 500 μm in-vitro ramos
  isoTOP-ABPP ratio (reactivity profile), O00170_C122: 1.1
[3]; 500 μm in-vitro ramos_231
  isoTOP-ABPP ratio (reactivity profile), O00170_C122: 1.3
[4]; 500 μm in-vitro ramos
  isoTOP-ABPP ratio (reactivity profile), Q15084_C55: 1.6
[4]; 500 μm in-vitro ramos_231
  isoTOP-ABPP ratio (reactivity profile), Q15084_C55: 2.1
[5]; 500 μm in-vitro ramos
  isoTOP-ABPP ratio (reactivity profile), P16455_C150: 2.9
[6]; 500 μm in-vitro ramos_231
  isoTOP-ABPP ratio (reactivity profile), O75874_C269: 1.0
[7]; 500 μm in-vitro ramos_231
  isoTOP-ABPP ratio (reactivity profile), P63244_C182: 1.6

## CC(C)CCOCCNC(=O)CCl [compound 27]
[1]; 500 μm in-vitro ramos
  isoTOP-ABPP ratio (reactivity profile), P09211_C48: 1.0
[1]; 500 μm in-vitro ramos_231
  isoTOP-ABPP ratio (reactivity profile), P09211_C48: 1.3 and 1.0
[2]; 500 μm in-vitro ramos
  isoTOP-ABPP ratio (reactivity profile), Q96GG9_C115: 1.0
[2]; 500 μm in-vitro ramos_231
  isoTOP-ABPP ratio (reactivity profile), Q96GG9_C115: 1.1
[3]; 500 μm in-vitro ramos
  isoTOP-ABPP ratio (reactivity profile), O00170_C122: 1.0
[3]; 500 μm in-vitro ramos_231
  isoTOP-ABPP ratio (reactivity profile), O00170_C122: 0.4
[4]; 500 μm in-vitro ramos
  isoTOP-ABPP ratio (reactivity profile), Q15084_C55: 1.2
[4]; 500 μm in-vitro ramos_231
  isoTOP-ABPP ratio (reactivity profile), Q15084_C55: 0.8 and 1.1
[5]; 500 μm in-vitro ramos
  isoTOP-ABPP ratio (reactivity profile), P16455_C150: 2.3
[5]; 500 μm in-vitro ramos_231
  isoTOP-ABPP ratio (reactivity profile), P16455_C150: 1.0
[8]; 500 μm in-vitro ramos
  isoTOP-ABPP ratio (reactivity profile), O14980_C528: 0.8
[8]; 500 μm in-vitro ramos_231
  isoTOP-ABPP ratio (reactivity profile), O14980_C528: 1.2 and 0.9
[7]; 500 μm in-vitro ramos
  isoTOP-ABPP ratio (reactivity profile), P63244_C182: 1.1
[7]; 500 μm in-vitro ramos_231
  isoTOP-ABPP ratio (reactivity profile), P63244_C182: 1.0 and 0.8

## CCN(CC)c1ccc(S(N)(=O)=O)cc1NC(=O)CCl [compound 30]
[1]; 500 μm in-vitro ramos
  isoTOP-ABPP ratio (reactivity profile), P09211_C48: 1.4
[1]; in-vitro_ramos
  isoTOP-ABPP reactivity ratio, P09211_C48: 1.2
[2]; 500 μm in-vitro ramos
  isoTOP-ABPP ratio (reactivity profile), Q96GG9_C115: 0.7
[2]; in-vitro_ramos
  isoTOP-ABPP reactivity ratio, Q96GG9_C115: 1.1
[3]; 500 μm in-vitro ramos
  isoTOP-ABPP ratio (reactivity profile), O00170_C122: 1.1
[3]; in-vitro_ramos
  isoTOP-ABPP reactivity ratio, O00170_C122: 2.0
[4]; 500 μm in-vitro ramos
  isoTOP-ABPP ratio (reactivity profile), Q15084_C55: 2.2
[5]
  isoTOP-ABPP reactivity ratio, P16455_C150: 5.1
[6]; 500 μm in-vitro ramos
  isoTOP-ABPP ratio (reactivity profile), O75874_C269: 0.7
[7]; 500 μm in-vitro ramos
  isoTOP-ABPP ratio (reactivity profile), P63244_C182: 1.2
[7]; in-vitro_ramos
  isoTOP-ABPP reactivity ratio, P63244_C182: 1.6

## CC(C)(C)c1cc(NC(=O)CCl)on1 [compound 32]
[1]; in-vitro_ramos
  isoTOP-ABPP reactivity ratio, P09211_C48: 1.4
[1]; in-vitro_ramos_231
  isoTOP-ABPP reactivity ratio, P09211_C48: 1.9
[2]; in-vitro_ramos
  isoTOP-ABPP reactivity ratio, Q96GG9_C115: 0.9
[3]; in-vitro_ramos
  isoTOP-ABPP reactivity ratio, O00170_C122: 1.9
[3]; in-vitro_ramos_231
  isoTOP-ABPP reactivity ratio, O00170_C122: 3.7
[4]; in-vitro_ramos
  isoTOP-ABPP reactivity ratio, Q15084_C55: 20.0
[4]; in-vitro_ramos_231
  isoTOP-ABPP reactivity ratio, Q15084_C55: 20.0
[5]
  isoTOP-ABPP reactivity ratio, P16455_C150: 20.0
[8]; in-vitro_ramos
  isoTOP-ABPP reactivity ratio, O14980_C528: 1.2
[8]; in-vitro_ramos_231
  isoTOP-ABPP reactivity ratio, O14980_C528: 1.7
[7]; in-vitro_ramos_231
  isoTOP-ABPP reactivity ratio, P63244_C182: 1.9

## C=CC(=O)Nc1cc(C)c(Br)cc1C [compound 40]
[1]; in-vitro_ramos
  isoTOP-ABPP reactivity ratio, P09211_C48: 1.6
[1]; in-vitro_ramos_231
  isoTOP-ABPP reactivity ratio, P09211_C48: 1.6
[2]; in-vitro_ramos
  isoTOP-ABPP reactivity ratio, Q96GG9_C115: 0.9
[4]; in-vitro_ramos_231
  isoTOP-ABPP reactivity ratio, Q15084_C55: 0.8
[5]
  isoTOP-ABPP reactivity ratio, P16455_C150: 1.9
[6]; 500 μm, in-vitro_ramos
  isoTOP-ABPP reactivity ratio, O75874_C269: 0.8
[7]; in-vitro_ramos
  isoTOP-ABPP reactivity ratio, P63244_C182: 0.6
[7]; in-vitro_ramos_231
  isoTOP-ABPP reactivity ratio, P63244_C182: 1.0

## O=C(CCl)Nc1ccc(-c2ccccc2)cc1 [compound 52]
[1]; in-vitro_ramos
  isoTOP-ABPP reactivity profile ratio, P09211_C48: 1.9
[1]; in-vitro_ramos_231
  isoTOP-ABPP reactivity profile ratio, P09211_C48: 1.0
[2]; in-vitro_ramos
  isoTOP-ABPP reactivity profile ratio, Q96GG9_C115: 1.0
[3]; in-vitro_ramos
  isoTOP-ABPP reactivity profile ratio, O00170_C122: 1.4
[4]; in-vitro_ramos
  isoTOP-ABPP reactivity profile ratio, Q15084_C55: 1.8
[4]; in-vitro_ramos_231
  isoTOP-ABPP reactivity profile ratio, Q15084_C55: 1.1
[5]
  isoTOP-ABPP reactivity profile ratio, P16455_C150: 2.2
[8]; in-vitro_ramos_231
  isoTOP-ABPP reactivity profile ratio, O14980_C528: 1.3
[7]; in-vitro_ramos_231
  isoTOP-ABPP reactivity profile ratio, P63244_C182: 1.0

## C=CC(=O)N1CCC(Cc2ccccc2)CC1 [compound 53]
[1]; in-vitro_ramos
  isoTOP-ABPP reactivity profile ratio, P09211_C48: 1.2
[1]; in-vitro_ramos_231
  isoTOP-ABPP reactivity profile ratio, P09211_C48: 2.3
[2]; in-vitro_ramos
  isoTOP-ABPP reactivity profile ratio, Q96GG9_C115: 0.9
[2]; in-vitro_ramos_231
  isoTOP-ABPP reactivity profile ratio, Q96GG9_C115: 1.0
[3]; in-vitro_ramos
  isoTOP-ABPP reactivity profile ratio, O00170_C122: 0.9
[4]; in-vitro_ramos
  isoTOP-ABPP reactivity profile ratio, Q15084_C55: 1.0
[4]; in-vitro_ramos_231
  isoTOP-ABPP reactivity profile ratio, Q15084_C55: 0.9
[5]
  isoTOP-ABPP reactivity profile ratio, P16455_C150: 1.1
[8]; in-vitro_ramos
  isoTOP-ABPP reactivity profile ratio, O14980_C528: 0.8
[7]; in-vitro_ramos
  isoTOP-ABPP reactivity profile ratio, P63244_C182: 0.8
[7]; in-vitro_ramos_231
  isoTOP-ABPP reactivity profile ratio, P63244_C182: 0.9
